This is an account of results in PubChem BioAssay AID330 (DTP/NCI, 2004).

The assay concerns P388 leukemia ip, CD2F1 mice, survival T/C. Put plainly: NCI In Vivo Anticancer Drug Screen. Data for tumor model P388 Leukemia (intraperitoneal) in CD2F1 (CDF1) mice. The note with it: endpoint: median survival time, higher = longer survival. A digest of the protocol: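 Mice carrying the transplanted tumor received test compound or vehicle. Survival was recorded in each group, and the value is the treated-group measurement divided by that of the vehicle-treated control group.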

The mark [1] stands for this setting: dose: 60.0 mg/kg/injection, schedule: Q01DX005 (ip), vehicle: saline with Tween-80.
Where [2] appears, read: dose: 120.0 mg/kg/injection, schedule: Q01DX005 (ip), vehicle: saline with Tween-80.
Setting [3] is: dose: 240.0 mg/kg/injection, schedule: Q01DX005 (ip), vehicle: saline with Tween-80.
Where [4] appears, read: dose: 50.0 mg/kg/injection, schedule: Q01DX005 (ip), vehicle: Klucel (hydroxypropylcellulose) (HPC).
The mark [5] stands for this setting: dose: 100.0 mg/kg/injection, schedule: Q01DX005 (ip), vehicle: Klucel (hydroxypropylcellulose) (HPC).
[6] abbreviates: dose: 200.0 mg/kg/injection, schedule: Q01DX005 (ip), vehicle: Klucel (hydroxypropylcellulose) (HPC).
Setting [7] is: dose: 25.0 mg/kg/injection, schedule: Q01DX009 (ip), vehicle: other.
Setting [8] is: dose: 50.0 mg/kg/injection, schedule: Q01DX009 (ip), vehicle: Klucel (hydroxypropylcellulose) (HPC).
Where [9] appears, read: dose: 100.0 mg/kg/injection, schedule: Q01DX009 (ip), vehicle: Klucel (hydroxypropylcellulose) (HPC).
The mark [10] stands for this setting: dose: 100.0 mg/kg/injection, schedule: Q04DX003 (ip), vehicle: saline with Tween-80.
Setting [11] is: dose: 200.0 mg/kg/injection, schedule: Q01DX009 (ip), vehicle: Klucel (hydroxypropylcellulose) (HPC).
The mark [12] stands for this setting: dose: 200.0 mg/kg/injection, schedule: Q04DX003 (ip), vehicle: saline with Tween-80.
Where [13] appears, read: dose: 400.0 mg/kg/injection, schedule: Q04DX003 (ip), vehicle: saline with Tween-80.
[14] abbreviates: dose: 100.0 mg/kg/injection, schedule: Q01DX009 (ip), vehicle: saline with Tween-80.
[15] abbreviates: dose: 200.0 mg/kg/injection, schedule: Q01DX009 (ip), vehicle: saline with Tween-80.

Values joined by “and” are separate entries in the source; they are usually repeats but may differ in a detail not shown here. Equal entries are not always repeated. Toxic doses and inconclusive results are not listed.

Turning to `CC1CC(C)(O)CC(C(O)CC2CC(=O)NC(=O)C2)C1=O` (stereo unspecified), the T/C reads like this: (dose: 77.8 micrograms/kg/injection, schedule: Q01DX009 (ip), vehicle: saline) 123 % of control; (dose: 216.0 micrograms/kg/injection, schedule: Q01DX009 (ip), vehicle: saline) 152 % of control and 162 % of control; (dose: 360.0 micrograms/kg/injection, schedule: Q01DX009 (ip), vehicle: saline) 165 % of control; (dose: 467.0 micrograms/kg/injection, schedule: Q04DX003 (ip), vehicle: saline) 120 % of control; (dose: 778.0 micrograms/kg/injection, schedule: Q04DX003 (ip), vehicle: saline) 120 % of control; (dose: 1300.0 micrograms/kg/injection, schedule: Q04DX003 (ip), vehicle: saline) 120 % of control. Further, the T/C is 124 % of control (dose: 2160.0 micrograms/kg/injection, schedule: Q04DX003 (ip), vehicle: saline) and 118 % of control (dose: 3600.0 micrograms/kg/injection, schedule: Q04DX003 (ip), vehicle: saline).
On to `O=C(c1ccccc1)c1ccccc1NCC(O)COc1cccc2ccccc12` (stereo unspecified), for which the T/C reads like this: under setting [1], 100 % of control; under setting [2], 92 % of control; under setting [3], 91 % of control.
`O=c1[nH]nc(SCc2c(Cl)cccc2Cl)c(=O)[nH]1`: the T/C was 95 % of control (dose: 25.0 mg/kg/injection, schedule: Q01DX005 (ip), vehicle: Klucel (hydroxypropylcellulose) (HPC)); 93 % of control under setting [4]; 111 % of control under setting [5]; 95 % of control under setting [6].
Regarding `CCOC(=O)C(=CCBr)C(=O)OCC`, the T/C was 105 % of control (dose: 1.56 mg/kg/injection, schedule: Q01DX009 (ip), vehicle: other); 110 % of control (dose: 3.13 mg/kg/injection, schedule: Q01DX009 (ip), vehicle: other); 118 % of control (dose: 6.25 mg/kg/injection, schedule: Q01DX009 (ip), vehicle: other); 106 % of control (dose: 12.5 mg/kg/injection, schedule: Q01DX009 (ip), vehicle: other); 102 % of control under setting [7].
For the compound `COC(=O)/C=C(/C(=O)OC)N(C)Cc1ccccc1`, the T/C runs as follows: (dose: 25.0 mg/kg/injection, schedule: Q01DX009 (ip), vehicle: Klucel (hydroxypropylcellulose) (HPC)) 97 % of control; under setting [8], 104 % of control; under setting [9], 98 % of control; under setting [10], 99 % of control; under setting [11], 101 % of control; under setting [12], 99 % of control. The T/C under setting [13] is 101 % of control.
Regarding `CC(C)(C)CC(C)(C)C/C=C/CN1C(=O)c2ccccc2S1(=O)=O`, the T/C was 101 % of control under setting [4], 100 % of control under setting [5] and 108 % of control under setting [6].
With `COc1ccc(/C=C(\C(C)=O)C(=O)CCN(C)C)cc1`, the T/C is, setting by setting: (dose: 50.0 mg/kg/injection, schedule: Q01DX005 (ip), vehicle: saline) 95 % of control; (dose: 100.0 mg/kg/injection, schedule: Q01DX005 (ip), vehicle: saline) 105 % of control; (dose: 200.0 mg/kg/injection, schedule: Q01DX005 (ip), vehicle: saline) 115 % of control.
On to `O=C(O)c1c2c(nc3ccccc13)CCCC2`, for which the T/C is 94 % of control (dose: 50.0 mg/kg/injection, schedule: Q01DX005 (ip), vehicle: Klucel + Tween-80) and 107 % of control (dose: 100.0 mg/kg/injection, schedule: Q01DX005 (ip), vehicle: Klucel + Tween-80).
In the case of `NC(=O)c1c(Cl)cccc1Cl`, the T/C is 101 % of control (dose: 12.5 mg/kg/injection, schedule: Q04DX003 (ip), vehicle: saline); 93 % of control (dose: 25.0 mg/kg/injection, schedule: Q04DX003 (ip), vehicle: saline); 99 % of control (dose: 50.0 mg/kg/injection, schedule: Q04DX003 (ip), vehicle: saline); 101 % of control (dose: 100.0 mg/kg/injection, schedule: Q04DX003 (ip), vehicle: saline).
For `CCCCCCCCCCCCCCCC(=O)N(CC#CCN(CCCN(C)C)C(=O)CCCCCCCCCCCCCCC)CCCN(C)C`, the T/C is, setting by setting: under setting [7], 95 % of control; (dose: 50.0 mg/kg/injection, schedule: Q01DX009 (ip), vehicle: other) 87 % of control.
On to `CN(c1ccccc1)C1CS(=O)(=O)OC2=C1CN(Cc1ccccc1)CC2` (stereo unspecified), for which the T/C reads like this: under setting [10], 99 % of control; under setting [12], 94 % of control; under setting [13], 90 % of control.
Regarding `CC(=O)CS(=O)(=O)c1ccc(NC(C)=O)cc1`, the T/C is, setting by setting: (dose: 50.0 mg/kg/injection, schedule: Q01DX009 (ip), vehicle: suspension in saline) 105 % of control; (dose: 100.0 mg/kg/injection, schedule: Q01DX009 (ip), vehicle: suspension in saline) 94 % of control; (dose: 200.0 mg/kg/injection, schedule: Q01DX009 (ip), vehicle: suspension in saline) 101 % of control.
As to `CSc1nc2ccc(N3C(=O)C=CC3=O)cc2s1`, the T/C was 102 % of control (dose: 3.12 mg/kg/injection, schedule: Q01DX009 (ip), vehicle: Klucel (hydroxypropylcellulose) (HPC)); 105 % of control (dose: 6.25 mg/kg/injection, schedule: Q01DX009 (ip), vehicle: Klucel (hydroxypropylcellulose) (HPC)); 101 % of control (dose: 12.5 mg/kg/injection, schedule: Q01DX009 (ip), vehicle: Klucel (hydroxypropylcellulose) (HPC)).
Consider `O=C(NCc1cc(CNC(=O)c2cccc(O)c2O)cc(CNC(=O)c2cccc(O)c2O)c1)c1cccc(O)c1O`, for which the T/C was 93 % of control (dose: 12.5 mg/kg/injection, schedule: Q01DX005 (ip), vehicle: saline with Tween-80); 102 % of control (dose: 25.0 mg/kg/injection, schedule: Q01DX005 (ip), vehicle: saline with Tween-80); 99 % of control and 107 % of control (dose: 50.0 mg/kg/injection, schedule: Q01DX005 (ip), vehicle: saline with Tween-80).
`Cc1cccc(NC(=O)Oc2ccc(Cl)cc2C(=O)c2ccccc2)c1`: the T/C is, setting by setting: under setting [1], 97 % of control; under setting [2], 98 % of control; under setting [3], 105 % of control.
As to `CC([OH2+])CNCCN.CC([OH2+])CNCCN.O=[N+]([O-])[O-].[Ni+2]` (stereo unspecified), the T/C reads like this: (dose: 3.13 mg/kg/injection, schedule: Q01DX009 (ip), vehicle: saline) 87 % of control; (dose: 6.25 mg/kg/injection, schedule: Q01DX009 (ip), vehicle: saline) 88 % of control; (dose: 12.5 mg/kg/injection, schedule: Q01DX009 (ip), vehicle: saline) 102 % of control and 87 % of control.
Turning to `Nc1nc(N)nc(NC(=O)COc2cc(Cl)c(Cl)cc2Cl)n1`, the T/C under setting [14] was 95 % of control; the T/C under setting [15] is 90 % of control; the T/C (dose: 400.0 mg/kg/injection, schedule: Q01DX009 (ip), vehicle: saline with Tween-80) was 100 % of control.
On to `COc1ccc(C(Nc2ccc([N+](=O)[O-])cc2)P(=O)(c2ccccc2)c2ccccc2)cc1` (stereo unspecified), for which the T/C was 99 % of control under setting [1], 92 % of control under setting [2] and 88 % of control under setting [3].
On to `CCCCCCC(O)/C=C/c1ccc(N(C)C)cc1` (stereo unspecified), for which the T/C is 103 % of control under setting [8], 99 % of control under setting [9] and 102 % of control under setting [11].
Turning to `O=C1CCC(=O)N2c3ccccc3-c3ccccc3N12`, the T/C by setting is: (dose: 50.0 mg/kg/injection, schedule: Q01DX009 (ip), vehicle: saline with Tween-80) 95 % of control; under setting [14], 93 % of control; under setting [15], 93 % of control.
For `CC(=O)Nc1cc2ccccc2c(Br)n1`, the T/C is 90 % of control (dose: 100.0 mg/kg/injection, schedule: Q01DX001 (ip), vehicle: saline with Tween-80); 97 % of control (dose: 200.0 mg/kg/injection, schedule: Q01DX001 (ip), vehicle: saline with Tween-80); 97 % of control (dose: 400.0 mg/kg/injection, schedule: Q01DX001 (ip), vehicle: saline with Tween-80).
Turning to `CNC(=O)NC(c1ccc2c(c1)OCO2)c1cc2c(cc1O)OCO2` (stereo unspecified), the T/C is, setting by setting: (dose: 60.0 mg/kg/injection, schedule: Q01DX005 (ip), vehicle: Klucel (hydroxypropylcellulose) (HPC)) 87 % of control; (dose: 120.0 mg/kg/injection, schedule: Q01DX005 (ip), vehicle: Klucel (hydroxypropylcellulose) (HPC)) 87 % of control.
